{"source": "PubChem BioAssay AID1259411", "about": "(Chemical Carcinogenesis Research Information System (CCRIS), 2018)", "system": "rodent carcinogenicity bioassays, tumor incidence", "assay": "CCRIS carcinogenicity studies", "conditions": "Species: MOUSE", "in_short": "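Archive of carcinogenicity, mutagenicity, tumor promotion and tumor inhibition results drawn from journals, NCI reports and other sources, expert-reviewed; covers 1985-2011 and is no longer updated.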", "note": "Activity calls are given as the source filed them. No rule for the calls is given here."}
{"smiles": "c1ccc2c(c1)cc1ccc3cccc4ccc2c1c34", "values": [{"measurement": "carcinogen call", "setting": "Strain/Sex: C3H/MALE, Route: DERMAL, Dose: 0.15-470 UG, 3/WK FOR LIFE, Tumor Site: Type of Lesion: INTEGUMENTARY SYSTEM (SKIN)", "result": "active; positive"}, {"measurement": "carcinogen call", "setting": "Strain/Sex: C3H/MALE, Route: SUBCUTANEOUS, Dose: 0.00195-8.0 MG, SINGLE DOSE, Tumor Site: Type of Lesion: INJECTION SITE: SARCOMA", "result": "active; positive"}, {"measurement": "carcinogen call", "setting": "Strain/Sex: C3H, Route: DERMAL, Dose: 0.00002-0.02%, 3/WK FOR UP TO 80 WK, Tumor Site: Type of Lesion: INTEGUMENTARY SYSTEM (SKIN)", "result": "active; positive"}, {"measurement": "carcinogen call", "setting": "Strain/Sex: C57BL/FEMALE, Route: INTRATRACHEAL, Dose: 0, 1 MG ON CHARCOAL POWDER INSTILLED 8 TIMES (STUDY DURATION: 13 WK), Tumor Site: Type of Lesion: LUNG: SQUAMOUS CELL CARCINOMA OR ADENOCARCINOMA", "result": "active; positive"}, {"measurement": "carcinogen call", "setting": "Strain/Sex: C57BL/FEMALE, Route: SUBCUTANEOUS, Dose: 0, 0.5, 1 MG IN 1% AQUEOUS GELATIN INJECTED IN THE SCAPULAR REGION OF NEWBORN MICE ONCE (STUDY DURATION: 9 WK), Dose: 0, 0.5, 1 MG IN 1% AQUEOUS GELATIN INJECTED IN THE SCAPULAR REGION OF NEWBORN MICE ONCE (STUDY DURATION: 9 WK)", "result": "inactive; negative"}, {"measurement": "carcinogen call", "setting": "Strain/Sex: C57BL/MALE, Route: SUBCUTANEOUS, Dose: 0, 0.5, 1 MG IN 1% AQUEOUS GELATIN INJECTED IN THE SCAPULAR REGION OF NEWBORN MICE ONCE (STUDY DURATION: 9 WK), Dose: 0, 0.5, 1 MG IN 1% AQUEOUS GELATIN INJECTED IN THE SCAPULAR REGION OF NEWBORN MICE ONCE (STUDY DURATION: 9 WK)", "result": "inactive; negative"}, {"measurement": "carcinogen call", "setting": "Strain/Sex: C57BL, Route: DERMAL, Dose: 0.0001-0.5%, 3/WK, Tumor Site: Type of Lesion: INTEGUMENTARY SYSTEM (SKIN)", "result": "active; positive"}, {"measurement": "carcinogen call", "setting": "Strain/Sex: C57BL, Route: SUBCUTANEOUS, Dose: 0.00004, 0.0004, 0.004, 0.04 MG, SINGLE DOSE, Tumor Site: Type of Lesion: INJECTION SITE: SARCOMA", "result": "active; positive"}, {"measurement": "carcinogen call", "setting": "Strain/Sex: C57BR/CDJ/FEMALE, Route: SUBCUTANEOUS, Dose: 0, 0.5, 1 MG IN 1% AQUEOUS GELATIN INJECTED IN THE SCAPULAR REGION OF NEWBORN MICE ONCE (STUDY DURATION: 9 WK), Dose: 0, 0.5, 1 MG IN 1% AQUEOUS GELATIN INJECTED IN THE SCAPULAR REGION OF NEWBORN MICE ONCE (STUDY DURATION: 9 WK)", "result": "inactive; negative"}, {"measurement": "carcinogen call", "setting": "Strain/Sex: C57BR/CDJ/MALE, Route: SUBCUTANEOUS, Dose: 0, 0.5, 1 MG IN 1% AQUEOUS GELATIN INJECTED IN THE SCAPULAR REGION OF NEWBORN MICE ONCE (STUDY DURATION: 9 WK), Dose: 0, 0.5, 1 MG IN 1% AQUEOUS GELATIN INJECTED IN THE SCAPULAR REGION OF NEWBORN MICE ONCE (STUDY DURATION: 9 WK)", "result": "inactive; negative"}, {"measurement": "carcinogen call", "setting": "Strain/Sex: CAF1, Route: DERMAL, Dose: 0.0005, 0.001, 0.5%, 3/WK, Tumor Site: Type of Lesion: INTEGUMENTARY SYSTEM (SKIN): PAPILLOMA", "result": "active; positive"}, {"measurement": "carcinogen call", "setting": "Strain/Sex: CFW/MALE, FEMALE, Route: ORAL, Dose: 30-250 PPM IN DIET FOR 70-197 D, Tumor Site: Type of Lesion: STOMACH", "result": "active; positive"}, {"measurement": "carcinogen call", "setting": "Strain/Sex: CFW/MALE, FEMALE, Route: ORAL, Dose: 250 PPM IN DIET FOR 1-30 D, OBSERVED UNTIL 103-107 D, Tumor Site: Type of Lesion: FORESTOMACH", "result": "active; positive"}, {"measurement": "carcinogen call", "setting": "Strain/Sex: CFW, Route: SUBCUTANEOUS, Dose: 0.001-2 MG, SINGLE DOSE, Tumor Site: Type of Lesion: INJECTION SITE: FIBROSARCOMA", "result": "active; positive"}, {"measurement": "carcinogen call", "setting": "Strain/Sex: DBA/2/FEMALE, Route: INTRATRACHEAL, Dose: 0, 1 MG ON CHARCOAL POWDER INSTILLED 8 TIMES (STUDY DURATION: 13 WK)", "result": "inactive; negative"}, {"measurement": "carcinogen call", "setting": "Strain/Sex: EU-PIM-1/MALE, Route: GAVAGE, Dose: 0, 4.3, 13, 39 MG/KG BW IN 0.1 ML SOY OIL 3/WK FOR 13 WK (STUDY DURATION: 291 D), Dose: 0, 4.3, 13, 39 MG/KG BW IN 0.1 ML SOY OIL 3/WK FOR 13 WK (STUDY DURATION: 291 D), Tumor Site: Type of Lesion: LYMPHATIC SYSTEM: LYMPHOMA, FORESTOMACH: TUMOR", "result": "active; positive"}, {"measurement": "carcinogen call", "setting": "Strain/Sex: ICR/FEMALE, Route: INTRAPERITONEAL, Dose: 0, 59.5 UG TOTAL DOSE (8.5 UG/5 µL, 17 UG/10 µL, 34 UG/20 µL DMSO ON DAYS 1, 8 AND 15) ADMINISTERED TO NEWBORN ANIMALS (, Tumor Site: Type of Lesion: LUNG: ADENOMA", "result": "active; positive"}, {"measurement": "carcinogen call", "setting": "Strain/Sex: ICR/MALE, Route: INTRAPERITONEAL, Dose: 0, 59.5 UG TOTAL DOSE (8.5 UG/5 µL, 17 UG/10 µL, 34 UG/20 µL DMSO ON DAYS 1, 8 AND 15) ADMINISTERED TO NEWBORN ANIMALS (, Tumor Site: Type of Lesion: LUNG: ADENOMA", "result": "active; positive"}, {"measurement": "carcinogen call", "setting": "Strain/Sex: N:GP(S)/FEMALE, Route: INTRATRACHEAL, Dose: 0, 1 MG ON CHARCOAL POWDER INSTILLED 8 TIMES (STUDY DURATION: 13 WK)", "result": "inactive; negative"}, {"measurement": "carcinogen call", "setting": "Strain/Sex: N:GP(S)/FEMALE, Route: SUBCUTANEOUS, Dose: 0, 40, 62.5, 125, 250, 500, 1000 UG FOR 9 WK (STUDY DURATION: 9 WK), Dose: 0, 40, 62.5, 125, 250, 500, 1000 UG FOR 9 WK (STUDY DURATION: 9 WK), Tumor Site: Type of Lesion: LUNG: ADENOMA", "result": "active; positive"}, {"measurement": "carcinogen call", "setting": "Strain/Sex: N:GP(S)/MALE, Route: SUBCUTANEOUS, Dose: 0, 40, 62.5, 125, 250, 500, 1000 UG FOR 9 WK (STUDY DURATION: 9 WK), Dose: 0, 40, 62.5, 125, 250, 500, 1000 UG FOR 9 WK (STUDY DURATION: 9 WK), Tumor Site: Type of Lesion: LUNG: ADENOMA", "result": "active; positive"}]}
